Experimental data taken from US20060088477A1 (priority 2004, published 2006).

Tests used:
[1] = test system: normal cells; settings: cited from earlier work
[2] = test system: viruses; settings: cited from earlier work
[3] = zinc salt; cited from earlier work
[4] = test system: inflammation
Source text: Another exemplary metal complex is disodium monozinc (II) citrate dihydrate, sold under the tradename MZC™ by National Research Laboratories, Ltd. of Cincinnati, Ohio.

Compound | toxicity to normal cells [1] | toxicity to viruses [2] | pH [3] | anti-inflammatory performance [4]
CC(=O)[O-].CC(=O)[O-].[Zn+2] [zinc acetate] | quite toxic to normal cells | very toxic to viruses | about 5 | 
disodium monozinc (II) citrate dihydrate [MZC] |  |  |  | dramatic anti-inflammatory performance
